Here are results for 27 compounds from patent US5391571A, “Cholesterol ester hydrolase inhibitors” (priority 1993, dated 1995).

Experiment [1] concerns the target T1, cholesterol esterase (EC 3.1.1.13) (Bos taurus, UniProt P30122).
T1 construct: purchased Sigma Chemical Company, St. Louis, Mo., USA C-1892; host or cells: bovine pancreas
Kind of experiment: in vitro inhibition of cholesteryl ester formation by cholesterol esterase. In kind it is biochemical, bovine. To be noted: 37° C., cholesterol and oleic acid, cholesterol esterase from bovine pancreas; read-out: IC50 (concentration that inhibits one-half of the ester formation). As to the method: The ability of the compounds of this invention to inhibit the formation of cholesteryl esters and thereby interfere with and prevent assimilation of cholesterol into the lymphatic system and ultimately the blood stream was established by incubating the compounds at 37° C. with a mixture of cholesterol and oleic acid in the presence of buffered cholesterol esterase [(EC 3.1.1.13) Sigma Chemical Company, St. Louis, Mo., USA, No. C-1892, from bovine pancreas] and measuring the amount of ester formed, according to the procedure of Field, J. of Lipid Research, 25 389 (1984).

Another experiment concerns cholesterol absorption. The experiment can be described thus: in vivo cholesterol absorption study, serum radioactivity after oral [4-^14C] cholesterol. To be noted: Rattus norvegicus, 6 h, normal rats, serum radioactivity at six hours; for inhibition in vivo at 100 mg/kg / inhibition in vivo at 50 mg/kg / inhibition in vivo at 20 mg/kg / inhibition in vivo at 65 mg/kg / inhibition in vivo at 10 mg/kg: vs control, read-out: Decrease in [^14C] Cholesterol Absorption; for ED50: read-out: ED50 (effective dose inhibiting fifty percent of the cholesterol absorption of the control animals). Here is the method: The in vivo cholesterol absorption studies were conducted in normal rats by oral administration of the compound being tested in propylene glycol and olive oil followed by oral administration of [4-^14 C] cholesterol in propylene glycol and olive oil, otherwise following the procedure of Cayen et al., J. Lipid Res. 20 162 (1979). The serum radioactivity was measured at six hours after dosing. The results of this study are reported in the following Table, where available, as percent decrease compared to control and in terms of the effective dose (ED50) inhibiting fifty-percent of the absorption of the control animals.

T1 sequence (P30122 19-597): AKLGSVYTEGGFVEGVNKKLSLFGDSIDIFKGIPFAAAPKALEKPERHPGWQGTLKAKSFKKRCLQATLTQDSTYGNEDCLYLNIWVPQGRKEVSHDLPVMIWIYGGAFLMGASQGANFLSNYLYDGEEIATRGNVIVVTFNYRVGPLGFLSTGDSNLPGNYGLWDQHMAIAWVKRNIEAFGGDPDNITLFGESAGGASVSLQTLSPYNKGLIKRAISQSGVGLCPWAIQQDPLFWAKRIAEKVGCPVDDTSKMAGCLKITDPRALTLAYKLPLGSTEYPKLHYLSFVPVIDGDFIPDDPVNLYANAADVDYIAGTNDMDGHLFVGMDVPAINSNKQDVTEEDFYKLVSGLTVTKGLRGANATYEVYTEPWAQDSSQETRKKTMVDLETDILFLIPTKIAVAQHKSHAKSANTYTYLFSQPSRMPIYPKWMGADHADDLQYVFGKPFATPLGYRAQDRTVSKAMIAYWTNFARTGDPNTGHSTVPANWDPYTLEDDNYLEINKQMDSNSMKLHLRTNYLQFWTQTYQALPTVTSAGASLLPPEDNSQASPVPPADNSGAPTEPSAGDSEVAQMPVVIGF

On to `CC(C)CCCC(C)NC(=O)Oc1ccc(Oc2ccccc2)cc1` (centres unmarked) [Example 4, (1,5-Dimethylhexyl)carbamic acid 4-phenoxyphenyl ester], for which the IC50 in experiment [1] came out at 5000 nM. For the same compound, in the experiment with cholesterol absorption, the inhibition in vivo at 100 mg/kg was found to be 89% and the ED50 is 13 mg/kg.
Take `CC[N+](CC)(CC)CC1CCN(C(=O)Oc2ccc(Oc3ccccc3)cc2)CC1` [Example 61, Triethyl 1-[(4-phenoxyphenoxy)carbonyl]-4-piperidinemethanaminium iodide]: in experiment [1], the IC50 was > 100000 nM. In the experiment with cholesterol absorption, the inhibition in vivo at 50 mg/kg worked out at 33%.
Regarding `O=C(Oc1ccc(Oc2ccccc2)cc1)N1CCCCC1` [Example 2, 1-Piperidinecarboxylic acid 4-phenoxyphenyl ester], the IC50 in experiment [1] was 130 nM. Moreover, in the experiment with cholesterol absorption, the inhibition in vivo at 100 mg/kg is 82% and the ED50 came to 24 mg/kg.
For the compound `CCC1CCN(C(=O)Oc2ccc(Oc3ccccc3)cc2)CC1` [Example 42, 4-Ethyl-1-piperidinecarboxylic acid 4-phenoxyphenyl ester], the IC50 in experiment [1] came to 50 nM. Also, the inhibition in vivo at 50 mg/kg with cholesterol absorption amounted to 81%.
`CC(C)C1CCN(C(=O)Oc2ccc(Oc3ccccc3)cc2)CC1` [Example 51, 4-(1-Methylethyl)-1-piperidinecarboxylic acid 4-phenoxyphenyl ester]: the IC50 in experiment [1] turned out to be 250 nM. In addition, the inhibition in vivo at 20 mg/kg with cholesterol absorption came out at 66%.
Regarding `O=C(Oc1ccc(Oc2ccccc2)cc1)N1CCC(O)CC1` [Example 44, 4-Hydroxy1-piperidinecarboxylic acid 4-phenoxyphenyl ester], the IC50 in experiment [1] was 1900 nM. The inhibition in vivo at 50 mg/kg in the experiment with cholesterol absorption was 49%.
For `CCCCNC(=O)Oc1ccc(Oc2ccc([N+](=O)[O-])cc2)cc1` [Example 20, Butylcarbamic acid 4-(4-nitrophenoxy)phenyl ester], the IC50 in experiment [1] worked out at 7600 nM. For the same compound, in the experiment with cholesterol absorption, the inhibition in vivo at 65 mg/kg amounted to 27%.
For `O=C(NCCCCc1ccccc1)Oc1ccc(Oc2ccccc2)cc1` [Example 3, (4-Phenylbutyl)carbamic acid 4-phenoxyphenyl ester], the IC50 in experiment [1] is 16000 nM. Also, in the experiment on cholesterol absorption, the inhibition in vivo at 10 mg/kg came to 70% and the ED50 stood at 6 mg/kg.
With `O=C(Oc1ccc(Oc2ccccc2)cc1)N1CCC(CBr)CC1` [Example 57, 4-(Bromomethyl)-1-piperidinecarboxylic acid, 4-phenoxyphenyl ester], the IC50 in experiment [1] is 80 nM. The inhibition in vivo at 50 mg/kg with cholesterol absorption came to 87%.
As for `CC1CCN(C(=O)Oc2ccc(Oc3ccccc3)cc2C#N)CC1` [Example 54, 4-Methyl-1-piperidinecarboxylic acid 2-cyano-4-phenoxyphenyl ester], the IC50 in experiment [1] is 440 nM. The inhibition in vivo at 50 mg/kg in the experiment with cholesterol absorption worked out at 36%.
Turning to `CC1CCN(C(=O)Oc2ccc(Oc3ccccc3)cc2F)CC1` [Example 41, 4-Methyl-1-piperidinecarboxylic acid 2-fluoro-4-phenoxyphenyl ester], in experiment [1], the IC50 worked out at 30 nM. For the same compound, the inhibition in vivo at 50 mg/kg with cholesterol absorption was 73%.
In the same order, the values of `CC1CCCN(C(=O)Oc2ccc(Oc3ccccc3)cc2)C1` (centres unmarked) [Example 39, 3-Methyl-1-piperidinecarboxylic acid 4-phenoxyphenyl ester] are 880 nM and 73%.
With `CCCCCCCC/C=C\CCCCCCCCNC(=O)Oc1ccc(Oc2ccccc2)cc1` [Example 67, (Z)-9-Octadecenylcarbamic acid 4-phenoxyphenyl ester], the IC50 in experiment [1] came to 626000 nM. For the same compound, in the experiment on cholesterol absorption, the inhibition in vivo at 100 mg/kg was 49%.
`O=C(Oc1ccc(Oc2ccccc2)cc1)N1CCCC1` [Example 12, 1-Pyrrolidinecarboxylic acid 4-phenoxyphenyl ester]: the IC50 in experiment [1] was 300 nM. For the same compound, the inhibition in vivo at 65 mg/kg in the experiment on cholesterol absorption worked out at 43%.
Consider `CC1CCN(C(=O)Oc2ccc(Oc3ccc(Cl)cc3)cc2)CC1` [Example 25, 4-Methyl-1-piperidinecarboxylic acid 4-(4-chlorophenoxy)phenyl ester], for which the IC50 in experiment [1] amounted to 170 nM. In addition, the inhibition in vivo at 65 mg/kg in the experiment on cholesterol absorption turned out to be 61%.
`O=C(Oc1ccc(Oc2ccccc2)cc1)N1CCSCC1` [Example 10, 4-Thiomorpholinecarboxylic acid 4-phenoxyphenyl ester]: the IC50 in experiment [1] turned out to be 1100 nM. Moreover, in the experiment on cholesterol absorption, the inhibition in vivo at 65 mg/kg turned out to be 74% and the ED50 came to 14 mg/kg.
For the compound `O=C(Oc1ccc(Oc2ccccc2)cc1)N1CCC2(CCCC2)CC1` [Example 52, 8-Azaspiro[4,5]decan-8-carboxylic acid 4-phenoxyphenyl ester], the IC50 in experiment [1] amounted to 750 nM. Also, the inhibition in vivo at 50 mg/kg in the experiment with cholesterol absorption was found to be 78%.
For `CC1CCN(C(=O)Oc2ccc(Oc3ccccc3)cc2C(=O)O)CC1` [Example 55], in that order: 31300 nM and 16%.
In the same order, the values of `CC1(C)CCN(C(=O)Oc2ccc(Oc3ccccc3)cc2)CC1` [Example 38, 4,4-Dimethyl-1piperidinecarboxylic acid 4-phenoxyphenol ester] are 230 nM and 86%.
In the same order, the values of `CC(=O)OC1CCN(C(=O)Oc2ccc(Oc3ccccc3)cc2)CC1` [Example 48, 4-(Acetyloxy)-1-piperidinecarboxylic acid 4-phenoxyphenyl ester] are 540 nM and 41%.
As to `CCCCNC(=O)Oc1ccc(Oc2ccccc2)cc1` [Example 1, Butylcarbamic acid 4-phenoxyphenyl ester], in experiment [1], the IC50 came to 2000 nM. In the experiment on cholesterol absorption, the inhibition in vivo at 100 mg/kg is 82% and the ED50 was determined as 24 mg/kg.
As to `CCCC1CCN(C(=O)Oc2ccc(Oc3ccccc3)cc2)CC1` [Example 45, 4Propyl-1-piperidinecarboxylic acid 4-phenoxyphenyl ester], in experiment [1], the IC50 came out at 70 nM. Also, in the experiment on cholesterol absorption, the inhibition in vivo at 10 mg/kg was 41%.
As for `O=C(NC12CC3CC(CC(C3)C1)C2)Oc1ccc(Oc2ccccc2)cc1` [Example 15], in experiment [1], the IC50 was 17500 nM. In addition, the inhibition in vivo at 100 mg/kg with cholesterol absorption was determined as 76%.
In the case of `CCN(CC)CC1CCN(C(=O)Oc2ccc(Oc3ccccc3)cc2)CC1` [Example 60], in experiment [1], the IC50 is > 100000 nM. Further, the inhibition in vivo at 50 mg/kg in the experiment on cholesterol absorption was 49%.
Consider `CCOC(=O)C1CCN(C(=O)Oc2ccc(Oc3ccccc3)cc2)CC1` [Example 43, 1,4-Piperidinedicarboxylic acid 4-ethyl-1-(4phenoxyphenyl) diester], for which the IC50 in experiment [1] is 4500 nM. For the same compound, the inhibition in vivo at 50 mg/kg with cholesterol absorption was determined as 60%.
Regarding `Cc1ccc(Oc2ccc(OC(=O)N3CCC(C)CC3)cc2)cc1` [Example 23, 4-Methyl-1-piperidinecarboxylic acid 4-(4-methylphenoxy)phenyl ester], the IC50 in experiment [1] amounted to 270 nM. In addition, in the experiment on cholesterol absorption, the inhibition in vivo at 65 mg/kg was 43%.
In the case of `CC1(C)CCCN(C(=O)Oc2ccc(Oc3ccccc3)cc2)C1` [Example 47, 3,3-Dimethyl-1-piperidinecarboxylic acid 4-phenoxyphenyl ester], in experiment [1], the IC50 was found to be 1600 nM. The inhibition in vivo at 20 mg/kg in the experiment on cholesterol absorption came to 67%.

The term ED50 denotes the dose that gives a 50% effect, or the effect in half of the subjects.
